Counter-ions that a name gives are not always drawn. Like-named read-outs stand apart in the source and are kept apart here.
Legend:
[1] = Cytotoxicity in H9c2 cells (CCK-8); format: cell-based; conditions: rat, H9c2 cells; H9c2 cell line
Method in brief: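 H9c2 cells were grown in DMEM with 10% FBS, seeded the day before, and exposed to a range of di-amidine concentrations for 24 h at 37 °C, 5% CO2. Viability was read by CCK-8 after 3 h at 37 °C as absorbance at 450 nm.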

MRSA and E. coli = assay: Composition of mixed MRSA and E. coli under antibiotic pressure; format: cell-based
Method: (§1) FIG. 11 contains graphs showing that MD-108 can change the composition between MRSA and E. coli (Panel A) or MRSA and B. subtilis (Panel B) when the bacteria strains are under the same antibiotic pressure.
(§2) As a proof of concept, the relative ratio of E. coli and MRSA or B. subtilis and MRSA was measured with and without MD-108 (FIGS. 11A and B). […] When supplied with 1.5 μg/ml MD-108 and 8 ng/ml trovafloxacin, the MRSA inhibition was achieved, leaving E. coli as the dominant species (89% of the bacteria population).

[2] = Cytotoxicity on mammalian cells (CCK-8), NIH3T3; format: cell-based; conditions: mouse, NIH3T3 cells, 3T3 cell line
Method in brief: (§3)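 Cells seeded a day ahead to ~80% confluency, exposed to varied compound concentrations for 24 h at 37° C, 5% CO2. CCK-8 added for a further 2 h and OD 450 nm read; viability expressed as percent of untreated control.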

M. smegmatis = assay: MIC on mycobacteria; format: cell-based, Mycobacterium smegmatis; conditions: Mycolicibacterium smegmatis, read-out: MIC on mycobacteria
MRSA (ATCC 33592) = assay: MIC determination and sensitization fold on MRSA; format: cell-based, methicillin-resistant Staphylococcus aureus; conditions: for sensitization fold with 2.7 μg/ml DB2560: MRSA towards the antibiotic
E. coli (ATCC 25922) = assay: MIC determination, sensitization fold and FIC index on E. coli; format: cell-based; conditions: for MIC: Escherichia coli; for MIC of AB with MD-124: MD-124 concentration 5 μg/ml
Method in brief: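 E. coli in cation-adjusted Mueller Hinton II, 5×10^5 CFU/ml, 24 h at 37 °C shaking; rifampicin two-fold serial dilutions with or without fixed sensitizer (10 μM).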

MRSA and B. subtilis = assay: Composition of mixed MRSA and B. subtilis under antibiotic pressure; format: cell-based; conditions: 8 ng/ml trovafloxacin and 1.5 μg/ml MD-108
Method: as §1, §2

HEK293 cells = assay: Cytotoxicity on mammalian cells (CCK-8), HEK293; format: cell-based; conditions: Homo sapiens, HEK293
Method in brief: as §3

[3] = Cytotoxicity on mammalian cells (CCK-8), HEK293; format: cell-based; conditions: human, HEK293 cells; HEK293 cell line; 24 h
Method in brief: as §3

B. subtilis = assay: MIC determination and sensitization fold on B. subtilis; format: cell-based; conditions: for sensitization fold with 5.5 μg/ml DB2560: B. subtilis towards the antibiotic
K. pneumoniae (43816) = assay: MIC, sensitization fold and FIC index on K. pneumoniae; format: cell-based
A. baumannii = assay: MIC of rifampicin on A. baumannii with bacterial sensitizer Compound D; format: cell-based; conditions: Acinetobacter baumannii; antibiotic alone; read-out: minimum inhibitory concentration (MIC) on A. baumannii
Method: Bacteria were cultured with the antibiotic at various concentrations in the presence or absence of bacterial sensitizer, Compound D, for 24 hours at 37° C.

[4] = test system: A. baumannii (ATCC 17978); assay: MIC, sensitization fold and FIC index on A. baumannii; format: cell-based; conditions: for Sensitization fold with 5 μg/ml MD-124: A. baumannii towards the antibiotic
[5] = test system: NDM-1 expressing E. coli strain; assay: microbe, parasite or virus in culture; format: cell-based; conditions: for Sensitization fold with 5 μg/ml MD-124: NDM-1 expressing E. coli towards the antibiotic
[6] = test system: mcr-1 over-expressing E. coli strains; assay: microbe, parasite or virus in culture; format: cell-based; conditions: for MIC: Escherichia coli; for Sensitization fold with 5 μg/ml MD-124: mcr-1 over-expression E. coli strain towards the antibiotic
E. coli = assay: Lysozyme assay (outer membrane disruption); format: cell-based; conditions: 50 μg/ml lysozyme, 25 μg/ml sensitizer, 10 min
Method: Lysozyme assay to evaluate the disruption of Gram-negative bacteria out membrane by bacterial sensitizers. Lysozyme assay was performed based on literature reported method. E. coli was cultured in Mueller Hinton II cation-adjusted broth for overnight, centrifuged at 3000 g for 10 min, washed with HEPES buffer (pH=7.2) and then centrifuged again to obtain bacteria pallet. The pallet was then gently resuspended in HEPES buffer with 5 mM NaCN to obtain an E. coli suspension with OD600 between 0.8˜1.0. On a 96-well plate, each well was supplied with 100 μl lysozyme solution (100 μg/ml) containing 50 or 100 μg/ml bacterial sensitizers in HEPES buffer. To each well was added 100 μl E. coli suspension. The final concentration of lysozyme was 50 μg/ml. The plate was incubated at room temperature for 10 min and the OD600 was recorded. E. coli was also incubated with bacterial sensitizers in the absence of lysozyme to test if bacterial sensitizers would directly induce bacterial lysis. E. coli that was incubated with lysozyme alone or E. coli without any treatment were also used as negative control.

E. coli expressing mcr-1 = assay: Ex vivo skin burn infection model, mcr-1 positive E. coli; conditions: human skin burn, hypromellose gel; 3‰ (w/w)
Method: To achieve topical application, compounds were formulated as hypromellose gel. […] After that, skin was loaded with hypromellose gel with different antibiotics and cultured at 37° C. for 24 hours. After 24 hours incubation, the skin sample was homogenized and the supernatants were serially diluted and plated on agar plates, from which bacterial counts on the skin was calculated. […] 1‰ polymyxin B hypromellose gel was used as positive control.

[7] = E. coli towards the antibiotic, MD-124 5 μg/ml
[8] = mcr-1 over-expression E. coli strain (MIC of polymyxin B 30 μg/ml)

Cc1cc(CCc2ccc(C(=N)N)cc2)cc(CCc2ccc(C(=N)N)cc2)c1 [MD-108, 4,4′-((5-methyl-1,3-phenylene)bis(ethane-2,1-diyl))dibenzimidamide dihydrochloride]
CC50 at 24 h [1]: 12.5 µM
E. coli share of the bacteria population (MRSA and E. coli; 1.5 μg/ml MD-108 and 8 ng/ml trovafloxacin): 89%
CC50 at 24 h [2]: 50 µM
MIC (M. smegmatis): 6 to 12 µM
Sensitization fold (MRSA (ATCC 33592); MRSA, rifampicin, compound at 3 μM): 16-fold at 3 μM
Sensitization fold (E. coli (ATCC 25922); 10 μM compound, rifampicin as the antibiotic (Table 6)): 16 fold
Sensitization fold (E. coli (ATCC 25922); E. coli, rifampicin, compound at 10 μM): 16-fold at 10 μM.
Sensitization fold (E. coli (ATCC 25922); E. coli, rifampicin, compound at 25 μM): 32-fold at 25 μM;
MIC (E. coli (ATCC 25922); ATCC25922, 24 h): 100 µM
B. subtilis share of the composition (MRSA and B. subtilis): 99.5%
IC50 (HEK293 cells): 50 µM
CC50 at 24 h [3]: 50 µM
Sensitization fold (B. subtilis; B. subtilis, erythromycin, compound at 6 μM): 32-fold at 6 μM.
MIC (B. subtilis; Bacillus subtilis, 24 h, B. subtilis, compound alone, read-out: MIC): 25 µM

CO[C@H]1/C=C/O[C@@]2(C)Oc3c(C)c(O)c4c(O)c(c(/C=N/N5CCN(C)CC5)c(O)c4c3C2=O)NC(=O)/C(C)=C\C=C\[C@H](C)[C@H](O)[C@@H](C)[C@@H](O)[C@@H](C)[C@H](OC(C)=O)[C@@H]1C [Rifampicin]
FIC index between MD-124 and antibiotic (K. pneumoniae (43816); K. pneumoniae): 0.15
MIC of AB with 5 μg/ml MD-124 (K. pneumoniae (43816); K. pneumoniae): 0.016 µg/mL
Sensitization fold with 5 μg/ml MD-124 (K. pneumoniae (43816); K. pneumoniae towards the antibiotic): 252 fold
sensitization fold with 2.7 μg/ml DB2560 (MRSA (ATCC 33592)): 32 fold
MIC (A. baumannii): 5 µg/mL
Sensitization fold (E. coli (ATCC 25922); [7]): 516 fold
fractional inhibitory concentration (FIC) index between MD-124 and antibiotic (E. coli (ATCC 25922); E. coli, checkerboard assay): 0.09
MIC (E. coli (ATCC 25922); ATCC25922, E. coli, with ~10 μg/ml MD-124, read-out: MIC of rifampicin (checkerboard assay)): 0.6 ng/mL
Sensitization fold with 5 μg/ml MD-124 [4]: 128 fold
FIC index between MD-124 and antibiotic ([4]; A. baumannii, checkerboard assay): 0.14
MIC ([4]; Acinetobacter baumannii, ATCC17978, A. baumannii, checkerboard assay, read-out: MIC of rifampicin with 7 pg/ml of the sensitizer (MD-124)): 0.01 µg/mL
FIC index between DB2560 and antibiotic (B. subtilis; B. subtilis): 0.11
MIC of antibiotic in the presence of 5.5 μg/ml of DB2560 (B. subtilis; B. subtilis): 0.037 µg/mL
sensitization fold with 5.5 μg/ml DB2560 (B. subtilis): 256 fold
MIC ([5]; Escherichia coli, read-out: MIC of rifampicin with 10 μg/ml MD-124, NDM-1 expressing E. coli): 0.012 µg/mL
FIC index between MD-124 and antibiotic ([5]; NDM-1 expressing E. coli): 0.09
Sensitization fold with 5 μg/ml MD-124 [5]: 516 fold
MIC ([6]; mcr-1 over-expression E. coli strain (MIC of polymyxin B 30 μg/ml), read-out: MIC of AB only): 5 µg/mL
MIC ([6]; read-out: MIC of AB with 5 μg/ml MD-124, mcr-1 over-expression E. coli strain (MIC of polymyxin B 30 μg/ml)): ≤ 0.2 µg/mL
MIC ([6]; strain mcr-1 A, read-out: MIC of Rif only): 5 µg/mL
MIC ([6]; strain mcr-1 B, read-out: MIC of Rif only): 5 µg/mL
FIC index between MD-124 and antibiotic ([6]; mcr-1 expressing E. coli): 0.37
MIC of AB with 5 μg/ml MD-124 [6, 8]: 0.16 µg/mL
Sensitization fold with 5 μg/ml MD-124 [6]: 32 fold

N[C@@H]1[C@H]2CN(c3nc4c(cc3F)c(=O)c(C(=O)O)cn4-c3ccc(F)cc3F)C[C@@H]12 [Trovafloxacin, reference compound]
MRSA share of the bacteria population (MRSA and E. coli; trovafloxacin 16 ng/ml): 78%
sensitization fold with 2.7 μg/ml DB2560 (MRSA (ATCC 33592)): 16 fold
Sensitization fold (E. coli (ATCC 25922); [7]): 32 fold
MIC of AB with MD-124 (E. coli (ATCC 25922); E. coli): 0.0015 µg/mL
Sensitization fold with 5 μg/ml MD-124 [4]: 2 fold
sensitization fold with 5.5 μg/ml DB2560 (B. subtilis): 8 fold
Sensitization fold with 5 μg/ml MD-124 [5]: 32 fold

Polymyxin B
bacterial lysis by lysozyme in the presence of sensitizer (E. coli): led to bacterial lysis
MIC of AB only (E. coli (ATCC 25922); E. coli (wild type), antibiotic alone): 1.2 µg/mL
Sensitization fold (E. coli (ATCC 25922); [7]): 32 fold
MIC of AB with MD-124 (E. coli (ATCC 25922); E. coli): 0.04 µg/mL
effect on bacterial load as compared with vehicle group (E. coli expressing mcr-1): only had minor effects
MIC of AB with 5 μg/ml MD-124 ([4]; A. baumannii): 0.04 µg/mL
Sensitization fold with 5 μg/ml MD-124 [4]: 4 fold
MFC of AB only ([4]; A. baumannii, antibiotic alone): 1.6 µg/mL
MIC of AB with 5 μg/ml MD-124 ([5]; NDM-1 expressing E. coli): 0.32 µg/mL
Sensitization fold with 5 μg/ml MD-124 [5]: 8 fold
MFC of AB only ([5]; NDM-1 expressing E. coli, antibiotic alone): 2.5 µg/mL
MIC of AB with 5 μg/ml MD-124 [6, 8]: 1 µg/mL
Sensitization fold with 5 μg/ml MD-124 [6]: 30 fold
MIC of Rif polymyxin B ([6]; strain mcr-1 A): 10 µg/mL
MIC of Rif polymyxin B ([6]; strain mcr-1 B): 30 µg/mL
